From patent US8450305B2, “Macrocyclic compounds useful as inhibitors of kinases and HSP90” (Universite de Strasbourg, priority 2006, dated 2013)

What was measured:
Format in all cases: biochemical
Aurora-B = biological target: T1, Aurora-B (Homo sapiens, UniProt Q96GD4); experiment: Radiometric protein kinase assay, Aurora-B; conditions: 1 μM ATP; read-out: Inhibitory activity (IC50:μM) Aurora-B
T1 construct: host or cells: Sf9 insect cells (baculovirus)
Source text: (§1) All protein kinases were expressed in Sf9 insect cells as human recombinant GST-fusion proteins or His-tagged proteins by means of the baculovirus expression system. Kinases were purified by affinity chromatography using either GSH-agarose (Sigma) or Ni-NTH-agarose (Qiagen). The purity of each kinase was checked by SDS-PAGE/silver staining and the identity of each kinase was verified by western blot analysis with kinase specific antibodies or by mass spectroscopy.
(§2) A radiometric protein kinase assay (^33PanQinase® Activity Assay) was used for measuring the kinase activity of the 24 protein kinases. All kinase assays were performed in 96-well FlashPlates™ from Perkin Elmer (Boston, Mass., USA) in a 50 μl reaction volume. The reaction cocktail was pipetted in 4 steps in the following order: • 20 μl of assay buffer • 5 μl of ATP solution (in H2O) • 5 μl of test compound (in 10% DMSO) • 10 μl of substrate/10 […] of enzyme solution (premixed)
(§3) The assay for all enzymes contained 60 mM HEPES-NaOH, pH 7.5, 3 mM MgCl2, 3 mM MnCl2, 3 μM Na-orthovanadate, 1.2 mM DTT, 50 μg/ml PEG20000, 1 μM [γ-^33P]-ATP (approx. 5×10^05 cpm per well).
(§4) For the 24 kinase assays, the following amounts of enzyme and substrate were used per well:
(§5) The reaction cocktails were incubated at 30° C. for 80 minutes. The reaction was stopped with 50 μl of 2% (v/v) H3PO4, plates were aspirated and washed two times with 200 μl of 0.9% (w/v) NaCl or 200 μl H2O. Incorporation of ^33Pi was determined with a microplate scintillation counter (Microbeta Trilux, Wallac).
(§6) The median value of the counts in column 1 (n=8) of each assay plate was defined as “low control”. This value reflects unspecific binding of radioactivity to the plate in the absence of a protein kinase but in the presence of the substrate. The median value of the counts in column 7 of each assay plate (n=8) was taken as the “high control”, i.e. full activity in the absence of any inhibitor. The difference between high and low control was taken as 100% activity.
(§7) As part of the data evaluation the low control value from a particular plate was subtracted from the high control value as well as from all 80 “compound values” of the corresponding plate. The residual activity (in %) for each well of a particular plate was calculated by using the following formula: Res. Activity (%)=100×[(cpm of compound−low control)/(high control−low control)]
(§8) The residual activities for each concentration and the compound IC50 values were calculated using Quattro Workflow V2.1.0.0 (Quattro Research GmbH, Munich, Germany; www.quattro-research.com). The model used was “Sigmoidal response (variable slope)” with parameters “top” fixed at 100% and “bottom” at 0%.

CDK4/CycD1 = biological target: T2, CDK4/CycD1 (Homo sapiens, UniProt P11802); experiment: Radiometric protein kinase assay, CDK4/CycD1; conditions: 1 μM ATP; read-out: Inhibitory activity (IC50:μM) CDK4/CycD1
T2 construct: host or cells: Sf9 insect cells (baculovirus)
Source text: as §1, §2, §3, §4, §5, §6, §7, §8

FAK = biological target: T3, FAK (Homo sapiens, UniProt Q05397); experiment: Radiometric protein kinase assay, FAK; conditions: 1 μM ATP; read-out: Inhibitory activity (IC50:μM) FAK
T3 construct: host or cells: Sf9 insect cells (baculovirus)
Source text: as §1, §2, §3, §4, §5, §6, §7, §8

EPHB4 = biological target: T4, EPHB4 (Homo sapiens, UniProt P54760); experiment: Radiometric protein kinase assay, EPHB4; conditions: 1 μM ATP; read-out: Inhibitory activity (IC50:μM) EPHB4
T4 construct: host or cells: Sf9 insect cells (baculovirus)
T4 sequence (P54760 16-987): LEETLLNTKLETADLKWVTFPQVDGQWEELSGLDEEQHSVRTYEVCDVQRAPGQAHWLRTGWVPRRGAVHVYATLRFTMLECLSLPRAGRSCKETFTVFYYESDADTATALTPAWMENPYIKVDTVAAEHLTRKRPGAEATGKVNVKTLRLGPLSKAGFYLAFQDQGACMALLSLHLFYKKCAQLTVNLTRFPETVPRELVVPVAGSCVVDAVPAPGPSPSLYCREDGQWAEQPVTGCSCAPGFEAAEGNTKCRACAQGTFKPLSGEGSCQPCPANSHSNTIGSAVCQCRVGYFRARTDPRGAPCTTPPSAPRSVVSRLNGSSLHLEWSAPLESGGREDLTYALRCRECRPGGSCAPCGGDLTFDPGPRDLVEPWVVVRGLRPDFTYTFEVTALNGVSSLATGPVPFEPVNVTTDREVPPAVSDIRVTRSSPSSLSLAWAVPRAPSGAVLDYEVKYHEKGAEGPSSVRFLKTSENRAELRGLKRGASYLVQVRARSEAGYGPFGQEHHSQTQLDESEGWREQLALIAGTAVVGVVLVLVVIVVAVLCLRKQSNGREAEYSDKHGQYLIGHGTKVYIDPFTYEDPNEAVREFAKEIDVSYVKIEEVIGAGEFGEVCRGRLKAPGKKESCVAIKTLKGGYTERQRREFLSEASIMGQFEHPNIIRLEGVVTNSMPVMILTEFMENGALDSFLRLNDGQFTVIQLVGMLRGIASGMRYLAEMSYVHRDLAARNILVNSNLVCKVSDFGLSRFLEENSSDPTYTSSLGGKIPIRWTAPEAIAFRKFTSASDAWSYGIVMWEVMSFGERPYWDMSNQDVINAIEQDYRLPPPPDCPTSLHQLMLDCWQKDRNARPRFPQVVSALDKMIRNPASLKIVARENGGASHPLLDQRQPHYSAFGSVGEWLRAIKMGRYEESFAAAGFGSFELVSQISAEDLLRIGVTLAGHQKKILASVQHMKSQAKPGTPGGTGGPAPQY
Source text: as §1, §2, §3, §4, §5, §6, §7, §8

EGF-R = biological target: T5, EGF-R (Homo sapiens, UniProt P00533); experiment: Radiometric protein kinase assay, EGF-R; conditions: 1 μM ATP; read-out: Inhibitory activity (IC50:μM) EGF-R
T5 construct: host or cells: Sf9 insect cells (baculovirus)
Source text: as §1, §2, §3, §4, §5, §6, §7, §8

IGF1-R = biological target: T6, IGF1-R (Homo sapiens, UniProt P08069); experiment: Radiometric protein kinase assay, IGF1-R; conditions: 1 μM ATP; read-out: Inhibitory activity (IC50:μM) IGF1-R
T6 construct: host or cells: Sf9 insect cells (baculovirus)
T6 sequence (P08069 31-1367): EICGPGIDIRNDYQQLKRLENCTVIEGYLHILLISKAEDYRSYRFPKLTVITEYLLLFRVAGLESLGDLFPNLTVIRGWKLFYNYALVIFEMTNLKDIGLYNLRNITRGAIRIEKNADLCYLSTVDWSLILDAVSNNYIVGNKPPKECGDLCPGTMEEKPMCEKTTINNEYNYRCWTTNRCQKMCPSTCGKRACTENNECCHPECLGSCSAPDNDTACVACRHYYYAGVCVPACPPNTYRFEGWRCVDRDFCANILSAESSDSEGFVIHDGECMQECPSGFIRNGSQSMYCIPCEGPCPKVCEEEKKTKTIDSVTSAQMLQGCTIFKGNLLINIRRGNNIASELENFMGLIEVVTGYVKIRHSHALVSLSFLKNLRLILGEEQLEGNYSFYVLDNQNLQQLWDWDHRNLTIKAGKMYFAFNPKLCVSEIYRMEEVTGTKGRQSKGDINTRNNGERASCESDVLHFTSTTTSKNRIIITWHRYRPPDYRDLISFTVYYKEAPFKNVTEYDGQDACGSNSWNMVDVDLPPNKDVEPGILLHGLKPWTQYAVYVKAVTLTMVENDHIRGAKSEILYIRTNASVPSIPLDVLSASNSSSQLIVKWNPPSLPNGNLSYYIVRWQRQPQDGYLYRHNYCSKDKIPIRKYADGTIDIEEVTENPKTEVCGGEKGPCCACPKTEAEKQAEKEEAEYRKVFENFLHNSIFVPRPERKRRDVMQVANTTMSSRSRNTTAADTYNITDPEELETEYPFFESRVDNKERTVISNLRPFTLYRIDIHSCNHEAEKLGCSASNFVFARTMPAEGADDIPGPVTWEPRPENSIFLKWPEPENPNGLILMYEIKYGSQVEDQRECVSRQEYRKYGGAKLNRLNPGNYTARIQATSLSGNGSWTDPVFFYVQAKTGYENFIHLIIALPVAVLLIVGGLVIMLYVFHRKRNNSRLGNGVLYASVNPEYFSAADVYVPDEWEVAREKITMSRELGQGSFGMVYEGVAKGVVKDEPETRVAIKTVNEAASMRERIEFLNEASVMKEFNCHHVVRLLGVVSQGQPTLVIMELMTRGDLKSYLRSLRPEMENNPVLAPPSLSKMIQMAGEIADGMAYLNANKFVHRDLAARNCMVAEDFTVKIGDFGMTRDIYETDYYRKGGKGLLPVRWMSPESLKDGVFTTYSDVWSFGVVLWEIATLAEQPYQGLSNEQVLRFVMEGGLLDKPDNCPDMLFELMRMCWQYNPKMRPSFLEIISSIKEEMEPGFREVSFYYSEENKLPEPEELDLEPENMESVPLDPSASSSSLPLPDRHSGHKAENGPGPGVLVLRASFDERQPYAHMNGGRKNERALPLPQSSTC
Source text: as §1, §2, §3, §4, §5, §6, §7, §8

SRC = biological target: T7, SRC (Homo sapiens, UniProt P12931); experiment: Radiometric protein kinase assay, SRC; conditions: 1 μM ATP; read-out: Inhibitory activity (IC50:μM) SRC
T7 construct: host or cells: Sf9 insect cells (baculovirus)
T7 sequence (P12931 whole entry): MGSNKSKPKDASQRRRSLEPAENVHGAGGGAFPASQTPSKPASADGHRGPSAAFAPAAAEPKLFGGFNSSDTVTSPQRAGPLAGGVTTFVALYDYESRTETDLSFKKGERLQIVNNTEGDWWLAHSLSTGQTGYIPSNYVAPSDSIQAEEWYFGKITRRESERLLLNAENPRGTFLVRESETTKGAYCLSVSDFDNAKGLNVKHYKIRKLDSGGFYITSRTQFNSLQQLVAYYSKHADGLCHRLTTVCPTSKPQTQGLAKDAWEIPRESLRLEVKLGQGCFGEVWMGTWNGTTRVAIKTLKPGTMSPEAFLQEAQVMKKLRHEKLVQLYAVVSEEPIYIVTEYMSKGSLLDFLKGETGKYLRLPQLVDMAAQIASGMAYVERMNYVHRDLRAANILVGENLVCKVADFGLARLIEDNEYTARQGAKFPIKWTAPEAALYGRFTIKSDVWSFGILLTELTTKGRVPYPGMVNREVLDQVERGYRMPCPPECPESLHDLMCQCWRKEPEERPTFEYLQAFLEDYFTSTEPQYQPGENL
Source text: as §1, §2, §3, §4, §5, §6, §7, §8

VEGF-R2 = biological target: T8, VEGF-R2 (Homo sapiens, UniProt P35968); experiment: Radiometric protein kinase assay, VEGF-R2; conditions: 1 μM ATP; read-out: Inhibitory activity (IC50:μM) VEGF-R2
T8 construct: host or cells: Sf9 insect cells (baculovirus)
T8 sequence (P35968 20-1356): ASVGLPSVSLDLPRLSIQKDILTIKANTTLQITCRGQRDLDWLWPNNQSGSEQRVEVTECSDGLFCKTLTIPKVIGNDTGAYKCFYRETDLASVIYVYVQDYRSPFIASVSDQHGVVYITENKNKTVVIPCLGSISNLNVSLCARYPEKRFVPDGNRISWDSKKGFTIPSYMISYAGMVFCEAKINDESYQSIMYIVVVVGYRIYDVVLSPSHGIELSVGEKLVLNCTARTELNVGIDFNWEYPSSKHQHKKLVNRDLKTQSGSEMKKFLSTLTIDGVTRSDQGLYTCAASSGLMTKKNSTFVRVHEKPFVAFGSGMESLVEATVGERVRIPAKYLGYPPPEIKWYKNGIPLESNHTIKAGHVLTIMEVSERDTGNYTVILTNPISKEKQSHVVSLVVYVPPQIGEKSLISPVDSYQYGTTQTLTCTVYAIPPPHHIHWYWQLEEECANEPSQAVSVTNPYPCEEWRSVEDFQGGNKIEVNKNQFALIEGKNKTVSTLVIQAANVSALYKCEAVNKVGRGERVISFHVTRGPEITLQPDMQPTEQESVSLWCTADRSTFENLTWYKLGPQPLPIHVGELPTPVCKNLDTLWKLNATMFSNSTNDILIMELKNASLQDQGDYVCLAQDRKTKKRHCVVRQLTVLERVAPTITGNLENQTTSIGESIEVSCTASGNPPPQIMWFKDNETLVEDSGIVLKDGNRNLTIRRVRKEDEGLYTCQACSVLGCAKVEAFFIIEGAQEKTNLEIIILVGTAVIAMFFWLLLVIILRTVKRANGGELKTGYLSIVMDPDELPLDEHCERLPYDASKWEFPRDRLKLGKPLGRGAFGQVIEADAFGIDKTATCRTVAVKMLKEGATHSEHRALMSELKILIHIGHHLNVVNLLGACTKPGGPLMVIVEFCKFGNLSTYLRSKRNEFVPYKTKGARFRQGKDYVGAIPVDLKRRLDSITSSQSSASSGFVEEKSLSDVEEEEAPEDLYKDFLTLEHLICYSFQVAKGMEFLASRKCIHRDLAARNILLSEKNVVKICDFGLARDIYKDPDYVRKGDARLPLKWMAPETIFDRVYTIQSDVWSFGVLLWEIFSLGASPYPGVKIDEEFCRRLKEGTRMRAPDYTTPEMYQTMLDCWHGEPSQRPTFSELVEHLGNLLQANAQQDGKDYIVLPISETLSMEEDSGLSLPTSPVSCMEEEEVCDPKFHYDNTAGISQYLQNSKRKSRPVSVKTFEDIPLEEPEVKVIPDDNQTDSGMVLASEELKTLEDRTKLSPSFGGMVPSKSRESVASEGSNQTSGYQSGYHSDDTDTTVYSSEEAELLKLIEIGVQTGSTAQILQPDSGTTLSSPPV
Source text: as §1, §2, §3, §4, §5, §6, §7, §8

MET = biological target: T9, MET (Homo sapiens, UniProt P08581); experiment: Radiometric protein kinase assay, MET; conditions: 1 μM ATP; read-out: Inhibitory activity (IC50:μM) MET
T9 construct: host or cells: Sf9 insect cells (baculovirus)
T9 sequence (P08581 25-1390): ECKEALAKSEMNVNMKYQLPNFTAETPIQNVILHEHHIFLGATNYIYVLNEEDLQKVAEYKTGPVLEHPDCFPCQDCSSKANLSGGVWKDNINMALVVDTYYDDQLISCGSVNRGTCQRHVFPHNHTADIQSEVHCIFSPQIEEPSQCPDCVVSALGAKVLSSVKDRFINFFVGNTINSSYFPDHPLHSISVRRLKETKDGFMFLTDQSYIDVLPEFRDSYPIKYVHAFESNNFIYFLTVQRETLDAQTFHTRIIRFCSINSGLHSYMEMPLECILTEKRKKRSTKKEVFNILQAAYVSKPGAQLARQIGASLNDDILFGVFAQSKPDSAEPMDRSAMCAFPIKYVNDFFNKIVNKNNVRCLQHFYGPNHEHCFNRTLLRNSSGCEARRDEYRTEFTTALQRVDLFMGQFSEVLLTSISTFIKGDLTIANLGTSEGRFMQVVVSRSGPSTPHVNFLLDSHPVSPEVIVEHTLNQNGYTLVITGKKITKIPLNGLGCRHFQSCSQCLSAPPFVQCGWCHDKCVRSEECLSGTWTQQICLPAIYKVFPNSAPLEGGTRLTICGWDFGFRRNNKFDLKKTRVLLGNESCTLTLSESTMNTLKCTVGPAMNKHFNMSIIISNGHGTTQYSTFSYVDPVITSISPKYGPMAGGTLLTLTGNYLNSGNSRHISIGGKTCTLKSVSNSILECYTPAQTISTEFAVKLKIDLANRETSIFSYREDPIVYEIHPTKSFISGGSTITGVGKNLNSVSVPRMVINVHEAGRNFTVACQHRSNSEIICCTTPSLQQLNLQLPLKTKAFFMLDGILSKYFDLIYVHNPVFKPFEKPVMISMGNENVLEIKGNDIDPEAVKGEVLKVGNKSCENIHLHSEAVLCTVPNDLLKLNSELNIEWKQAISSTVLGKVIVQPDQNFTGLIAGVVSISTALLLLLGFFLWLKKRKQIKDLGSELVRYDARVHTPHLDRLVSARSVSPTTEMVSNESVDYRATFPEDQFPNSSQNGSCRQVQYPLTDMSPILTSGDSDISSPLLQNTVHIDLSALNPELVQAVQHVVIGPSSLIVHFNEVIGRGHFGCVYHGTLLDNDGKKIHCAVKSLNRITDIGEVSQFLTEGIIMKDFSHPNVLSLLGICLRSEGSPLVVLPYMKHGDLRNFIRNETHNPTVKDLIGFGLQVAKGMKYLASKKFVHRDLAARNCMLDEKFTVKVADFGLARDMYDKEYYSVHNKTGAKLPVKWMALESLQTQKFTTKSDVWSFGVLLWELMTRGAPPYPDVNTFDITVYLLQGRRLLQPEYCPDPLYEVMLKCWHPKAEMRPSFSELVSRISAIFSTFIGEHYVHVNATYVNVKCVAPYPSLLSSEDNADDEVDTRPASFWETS
Source text: as §1
as §2, with “(premixed) […]” for “(premixed)”
The reaction cocktails were incubated at 30° C. for 80 minutes. […] Incorporation of ^33Pi was determined with a microplate scintillation counter (Microbeta Trilux, Wallac).
The median value of the counts in column 1 (n=8) of each assay plate was defined as “low control”. This value reflects unspecific binding of radioactivity to the plate in the absence of a protein kinase but in the presence of the substrate. […]
as §7
The residual activities for each concentration and the compound IC50 values were calculated using Quattro Workflow V2.1.0.0 (Quattro Research GmbH, Munich, Germany; www.quattro-research.com). […]

T1 sequence (Q96GD4 whole entry): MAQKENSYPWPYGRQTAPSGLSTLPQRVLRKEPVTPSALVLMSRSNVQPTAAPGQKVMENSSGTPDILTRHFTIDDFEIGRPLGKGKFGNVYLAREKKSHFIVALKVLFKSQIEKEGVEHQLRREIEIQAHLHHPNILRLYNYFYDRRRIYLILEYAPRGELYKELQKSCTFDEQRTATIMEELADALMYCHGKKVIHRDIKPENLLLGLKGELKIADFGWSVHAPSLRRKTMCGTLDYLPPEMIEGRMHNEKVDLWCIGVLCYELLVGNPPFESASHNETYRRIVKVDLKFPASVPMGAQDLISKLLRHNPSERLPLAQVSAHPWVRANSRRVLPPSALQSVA

Row | Compound | IC50 (Aurora-B) [µM] | IC50 (CDK4/CycD1) [µM] | IC50 (FAK) [µM] | IC50 (EPHB4) [µM] | IC50 (EGF-R) [µM] | IC50 (IGF1-R) [µM] | IC50 (SRC) [µM] | IC50 (VEGF-R2) [µM] | IC50 (MET) [µM]
1 | O=C1/C=C/CCC2OC2C[C@@H](Cc2ccccc2)OC(=O)c2c(O)cc(O)cc2C1 (stereo partly drawn) [A-6] | 16 | 37 | 34 | 40 | 32 | 21 | 20 | 25 | 36
2 | COC1CC/C=C/C[C@H](c2ccccc2)OC(=O)c2c(O)cc(O)c(Cl)c2CC(=O)C1 (stereo partly drawn) [A-2] | 16 | 50 | 14 | 16 | 10 | 16 | – | 19 | 32

Further lines, results first:

Row | IC50 (Aurora-B) [µM] | IC50 (CDK4/CycD1) [µM] | IC50 (FAK) [µM] | IC50 (EPHB4) [µM] | IC50 (EGF-R) [µM] | IC50 (IGF1-R) [µM] | IC50 (SRC) [µM] | IC50 (VEGF-R2) [µM] | IC50 (MET) [µM] | Compound
3 | – | 45 | 38 | 49 | 16 | – | 12 | 19 | – | O=C1/C=C/CCC2OC2C[C@H](c2ccccc2)OC(=O)c2c(O)cc(O)c(Cl)c2C1 (stereo partly drawn) [A-5]
4 | 36 | 48 | 37 | – | 22 | 13 | 12 | 30 | – | CC(C)[C@@H]1CC2OC2CC/C=C/C(=O)Cc2c(Cl)c(O)cc(O)c2C(=O)O1 (stereo partly drawn) [A-4]
5 | 14 | 30 | 9 | 40 | 14 | 19 | 14 | 20 | 29 | O=C1Cc2c(Cl)c(O)cc(O)c2C(=O)O[C@H](c2ccccc2)C/C=C/CCC(Cl)C1 (stereo partly drawn) [A-3]
